Experimental data: patent publication US7396643B2, “Method for the screening, the detection and/or the quantification of transcriptional factors” (Eppendorf Array Technologies, S.A., priority 2000, dated 2008)

Legend:
Format in all cases: cell-based
AP-1 = assay: Microwell colorimetric DNA-binding assay, AP-1 (anti-c-fos); conditions: nuclear extracts of WI-38 VA13 cells stimulated 30 min, 0.1 μg/ml PMA + 1 μM ionomycin, FIG. 2C
Source text: Step 1: Binding of the Double Strand Oligonucleotidic Probe on Multi-well Plates
The spacer double strand nucleotide sequences were constructed from the following CMV sequence: • 5′[…] (SEQ ID NO:146) acting as a spacer was linked to a) the NFκB consensus oligonucleotide 5′[…]-3′ (SEQ ID NO:147) b) the CREB consensus oligonucleotide 5′[…]-3′ (SEQ ID NO:148) and c) the AP-1 consensus oligonucleotide 5′[…]-3′ (SEQ ID NO:149). In the example the spacer was of 100 based pairs. […] Plates are then washed and the amount of DNA fixed on streptavidin-coated plates was quantified using the picogreen assay (Molecular Probes, OR, USA). […]
• cells were rinsed with cold PBS150 • cells were left swollen during 3 min in a cold hypotonic buffer (20 mM Hepes pH 7.4, 5 mM NaF, 1 mM Na2MoO4, 0.1 mM EDTA). • Cells were scrapped in 0.5 ml of hypotonic buffer containing 0.2% nonidet P40 and immediately centrifuged during 30 sec at maximal speed (13000 rpm). • The pellet was resuspended in 100 μl of lysis buffer (hypotonic buffer containing 20% glycerol, 0.4 M NaCl, phosphatases and proteases inhibitors cocktail). • The nuclear extract was agitated 30 min at 4° C., and then centrifuged for 10 min at maximal speed (13000 rpm) at 4° C. • The supernatant (=nuclear extract) was frozen at −80° C. and its proteic content was determined by the Bradford assay. […]

CREB = assay: Microarray assay of P-CREB, influence of the spacer; conditions: whole cell lysates of WI-38 VA 13 fibroblasts, 10 μg/ml forskolin
Protocol: Step 1: Binding of the Probes on Glass.
The binding of probes was obtained as described in the example 3 using the consensus sequence of NF-KB or CREB alone or with a spacer of 50, 100, 150 and 250 bp constructed from the sequence given in example 1.
Step 2 :Binding of NFκB on the Double Strand Probe Fixed on Micro-array
This assay was performed with whole cell lysates from WI-38 VA 13 fibroblasts stimulated with IL-1β (a NFκB activator) or 10 μg/ml of forskolin(to activate CREB). The control was 20 μl of lysis buffer mixed with 30 μl of binding buffer.
Steps 3, 4 and 5: Binding of Antibodies and Detection
The binding of the primary anti-NFκB and anti-PCREB antibodies was then used for reaction on the factors followed by a second gold labelled antibody and a calorimetric detection as in example 3. […] The values for P-CREB with unstimulated cells were 5.5 and 4 respectively with no spacer and with a 100 base spacer. The values for stimulated cells were respectively of 7 and 21 respectively with no spacer and a spacer of 100 bases pairs.

NFκB = assay: Microarray assay for DNA-binding activity of NFκB in nuclear cell extracts; conditions: nuclear extracts of WI-38 VA 13 fibroblasts; anti-p50, gold-labelled second antibody, silver; unstimulated cells gave 10
Protocol: Step 1: Binding of the Probes on Glass
Activated glass slides bearing aldehyde groups were purchased from AAT (Belgium).
The slides were first incubated in 0.8 ml of a 50 μg/ml streptavidin solution in a 10 mM phosphate buffer (pH 7.4) containing 10 mM NaCl (PBS10 buffer). After 1 h incubation at 20° C., the plates were washed 3 times for 2 min in PBS150 containing 0.02% Tween 20 and then 2 times 2 min with water. The plates were then incubated for 2 h at 20° C. in 20 ml of PBS150 solution containing 10% non fat dried milk and then washed 5 times 2 min in PBS150 solution.
Spotting was performed with the NFκB consensus probe or with the CREB consensus probe as in example 1. The capture probes were printed onto the microscopic slides with a home made robotic device. 250 μm pins from Genetix (UK) were used. The spots have an average of 400 μm in diameter and the volume dispensed is about 1 nl. The concentration of probes used was 3000 nmolaire. […]
There was no signal for the negative control, while in nuclear cell extracts, activated NFκB is detectable in cell stimulated with IL-1, with a much higher intensity than in unstimulated. The results obtained with the nuclear cell extracts have been quantitated, using a calorimetric microarray reader including the quantification software (AAT, Namur, Belgium). […]

For `CCCCCCCCCCCCCC(=O)O[C@@H]1[C@@H](C)[C@@]2(O)[C@@H](C=C(CO)C[C@]3(O)C(=O)C(C)=C[C@@H]23)[C@@H]2C(C)(C)[C@]12OC(C)=O` [PNA], the “signal obtained for the assay of c-fos (AP-1)” value (AP-1) was “strongly induced”.
For `C=C[C@@]1(C)CC(=O)[C@]2(O)[C@@]3(C)[C@@H](O)CCC(C)(C)[C@@H]3[C@H](O)[C@H](OC(C)=O)[C@@]2(C)O1` [forskolin], the “value for P-CREB, stimulated cells, spacer of 100 base pairs” value (CREB; probe with 100 bp spacer, unstimulated cells gave 4) was 21 and the “value for P-CREB, stimulated cells, no spacer” value (CREB; probe with no spacer, unstimulated cells gave 5.5) was 7.
For “IL-1: a NFκB activator used to stimulate cells”, the “spot intensity for activated NFκB, stimulated cells” value (NFκB) was 175 grey intensity.
